Measured values taken from patent US20020165221A1, “Mediators of hedgehog signaling pathways, compositions and uses related thereto” (priority 2000, published 2002).

Tested on: Hedgehog pathway
Experiment: Gli-Luc assay (Hedgehog-responsive Luciferase reporter), 10T1/2(s12) cells with OCT-SHH
Format: cell-based
Details: OCT-SHH 0.3 μg/ml
Experimental: Compounds to be tested are dissolved in DMSO to a concentration of 10 MM, and stored at −20° C. To activate the Hedgehog pathway in the assay cells, an octylated (lipid-modified) form of the N-terminal fragment of the Sonic Hedgehog protein (OCT-SHH) is used. This N-terminal SHH fragment is produced bacterially.
Compounds may be tested in the “Gli-Luc” assay below, using the cell line 10T(s12), wherein the cells contain a Hedgehog-responsive reporter construct utilizing Luciferase as the reporter gene. In this way, Hedgehog pathway signaling activity can be measured via the Gli-Luc response.
10t1/2(s12) cells are plated in a 96-well micro-titer plate (MTP) at 20,000 cells/well in full medium [DMEM with 10% FBS]. Then plates are placed in the incubator for incubation overnight (O/N), at 37° C. and 5% CO2. After 24 h, the medium is replaced with Luciferase-assay medium (DMEM with 0.5% FBS). Compounds are thawed and diluted in assay medium at 3:1000 (about 300-fold) resulting in a starting concentration of about 30 μM.
Subsequently, 150 μl of each 30 μM sample is added to the first wells (in triplicate). The MTP samples are then diluted at 3-fold dilutions to a total of seven wells, ultimately resulting in a regiment of seven dilutions in triplicate, for each compound. Next, the protein ligand OCT-SHH is diluted in Luciferase-assay medium and added to each well at a final concentration of 0.3 μg/ml. Plates are then returned to the incubator for further incubation O/N, at 37° C. and 5% CO2. After about 24 h, plates are removed from the incubator and the medium is aspirated/discarded. Wells are washed once with assay buffer [PBS +1 mM Mg^2+and 1 mM Ca^2+]. Then 50 μl of assay buffer is added to each well. The Luciferase assay reagent is prepared as described by the vendor (LucLite kit from Packard), and 50 μl is added to each well. Plates are incubated at room temperature (RT) for about 30 minutes after which the signals are read, again at RT, on a Topcount (Packard).

SMILES	IC50 [nM]
COc1cccc(CN(C(=O)CC(C)(C)C)C2CC(C(=O)N3CCNCC3)N(Cc3ccc(-c4cc(C(F)(F)F)n(C)n4)s3)C2)c1 (stereo not shown) [E″]	< 10000
CC(C)(C)CC(=O)N(Cc1ccccc1)C1CC(C(=O)NCCN)N(CC2CCCCC2)C1 (stereo not shown) [Y]	< 10000
COc1cccc(CN(C(=O)CC(C)C)C2CC(C(=O)N3CCNCC3)N(Cc3ccc(OC)c(OC)c3OC)C2)c1 (stereo not shown) [Compound I]	< 10000
COc1cccc(CN(C(=O)c2ccco2)C2CC(C(=O)N3CCNCC3)N(Cc3ccc4c(c3)OCCO4)C2)c1 (stereo not shown) [Q′]	< 10000
COc1cccc(CN(C(=O)CC(C)CCC=C(C)C)C2CC(C(=O)N3CCNCC3)N(Cc3ccc4c(c3)OCO4)C2)c1 (stereo not shown) [Q″]	< 10000
COCC(=O)N(Cc1cccc(OC)c1)[C@H]1C[C@@H](C(=O)N2CCNCC2)N(Cc2ccc3c(c2)OCO3)C1 [P″]	< 10000
O=C(C1CC(N(CC2CCCCC2)CC2CCCO2)CN1Cc1ccc(F)cc1)N1CCNCC1 (stereo not shown) [E′]	< 10000
CC(C)CC(=O)N(Cc1cccc(OCc2ccccc2)c1)C1CC(C(=O)N2CCNCC2)N(Cc2ccc3c(c2)OCO3)C1 (stereo not shown) [Y″]	< 10000
NCCNC(=O)C1CC(N(CCc2ccccc2)Cc2ccc([N+](=O)[O-])cc2)CN1CC1CCCCC1 (stereo not shown) [F′]	< 10000
COc1cccc(CN(C(=O)C(C)C)C2CC(C(=O)N3CCNCC3)N(Cc3ccc(OC)c(OC)c3OC)C2)c1 (stereo not shown) [P′]	< 10000
COc1cccc(CN2CC(N(CCc3ccccc3)Cc3ccccc3C)CC2C(=O)NCCN)c1 (stereo not shown) [G′]	< 10000
CC(C)CC(=O)N(Cc1cccc([N+](=O)[O-])c1)C1CC(C(=O)N2CCNCC2)N(Cc2ccc3c(c2)OCO3)C1 (stereo not shown) [U″]	< 10000
Cc1ccc(CN2CC(N(Cc3cccs3)C(=O)c3cccs3)CC2C(=O)N2CCNCC2)s1 (stereo not shown) [D′]	< 10000
COc1cccc(CN(C(=O)CC(C)(C)C)[C@H]2C[C@@H](C(=O)N3CCNCC3)N(Cc3ccc(-c4cccs4)s3)C2)c1 [D″]	< 10000
NCCNC(=O)C1CC(N(CCc2ccccc2)C(=O)C2CCCCC2)CN1CC1CCCCC1 (stereo not shown) [B′]	< 10000
CCN1CCC(N(CC)C(=O)[C@@H]2C[C@H](N(Cc3cccc(OC)c3)C(=O)CC(C)(C)C)CN2Cc2ccc3c(c2)OCO3)C1 (stereo partly shown) [E′″]	< 10000
CCc1ccc(CN2CC(N(Cc3cccc(OC)c3)C(=O)CC(C)(C)C)CC2C(=O)N2CCNCC2)s1 (stereo not shown) [A″]	< 1000
Cc1ccccc1CN(CCc1ccccc1)C1CC(C(=O)NCC2CCC(CN)CC2)N(Cc2ccc3c(c2)OCO3)C1 (stereo not shown) [I′]	< 10000

SMILES	IC50 [nM]
COc1cccc(CN(C(=O)CC(C)(C)C)C2CC(C(=O)N3CCNCC3)N(Cc3cc4ccsc4s3)C2)c1 (stereo not shown) [Y′]	< 1000
COc1cccc(CN2CC(N(Cc3cccc(OC)c3)C(=O)C3CC3)CC2C(=O)N2CCNCC2)c1 (stereo not shown) [C]	< 1000
CC(C)CN(C(=O)c1cccs1)C1CC(C(=O)NC2CCC(N)CC2)N(CC2CCCCC2)C1 (stereo not shown) [J′]	< 10000
COc1cccc(CN(C(=O)CC(C)(C)C)[C@H]2C[C@@H](C(=O)N3CCN[C@@H](C)C3)N(Cc3ccc4c(c3)OCO4)C2)c1 [Z″]	< 1000
CCC(=O)N(Cc1cccc(OC)c1)C1CC(C(=O)N2CCNCC2)N(Cc2ccc(OC)c(OC)c2OC)C1 (stereo not shown) [S′]	< 10000
O=C(C1CC(N(Cc2cccs2)C(=O)C2CC2)CN1Cc1ccc2c(c1)OCO2)N1CCNCC1 (stereo not shown) [V]	< 1000
CCNCCCN(CC)C(=O)[C@@H]1C[C@H](N(Cc2cccc(OC)c2)C(=O)CC(C)(C)C)CN1Cc1ccc2c(c1)OCO2 [F′″]	< 1000
O=C(C1CC(N(CC2CCCCC2)CC2CC2)CN1Cc1ccc(F)cc1)N1CCCNCC1 (stereo not shown) [C′]	< 10000
COc1cccc(CN(C(=O)C2CCCC2)C2CC(C(=O)N3CCNCC3)N(Cc3ccc4c(c3)OCCO4)C2)c1 (stereo not shown) [W′]	< 1000
COc1cccc(CN(C(=O)CC(C)(C)C)C2CC(C(=O)N3CCNCC3)N(Cc3cc(Br)cs3)C2)c1 (stereo not shown) [L]	< 10000
COc1cccc(CN(C(=O)CC(C)(C)C)[C@H]2C[C@@H](C(=O)N(C)C3CCNC3)N(Cc3ccc4c(c3)OCO4)C2)c1 (stereo partly shown) [D′″]	< 10000
Cc1ccc(CN2CC(N(CCc3ccccc3)Cc3ccc(F)cc3)CC2C(=O)NCCN)s1 (stereo not shown) [H′]	< 10000
COc1cccc(CN(C(=O)C2CCCC2)C2CC(C(=O)N3CCNCC3)N(Cc3ccc(OC)c(OC)c3OC)C2)c1 (stereo not shown) [V′]	< 1000
COc1cccc(CN(C(=O)CC(C)(C)C)C2CC(C(=O)N3CCNCC3)N(Cc3ccc4c(c3)OCO4)C2)c1 (stereo not shown) [M]	< 1000
COc1cccc(CN(C(=O)CC(C)C)C2CC(C(=O)N3CCNCC3)N(Cc3ccc4c(c3)OCCO4)C2)c1 (stereo not shown) [R′]	< 1000
COc1cccc(CN(C(=O)CC(C)(C)C)C2CC(C(=O)N3CCNCC3)N(Cc3cc4ccccc4n3C)C2)c1 (stereo not shown) [F″]	< 10000
COc1cccc(CN(C(=O)CC(C)(C)C)C2CC(C(=O)N3CCNCC3)N(Cc3ccc(F)cc3)C2)c1 (stereo not shown) [X]	< 10000

The remaining lines, values ahead:

IC50 [nM]	SMILES
< 1000	COc1cccc(CN(C(=O)C2CC2)C2CC(C(=O)N3CCNCC3)N(CC3CCCCC3)C2)c1 (stereo not shown) [S]
< 100	COc1cccc(CN(C(=O)C2CC2)C2CC(C(=O)N3CCNCC3)N(Cc3ccc4c(c3)OCO4)C2)c1 (stereo not shown) [E]
< 1000	COc1cccc(CN(C(=O)CC(C)C(F)(F)F)C2CC(C(=O)N3CCNCC3)N(Cc3ccc4c(c3)OCO4)C2)c1 (stereo not shown) [L″]
< 100	COc1cccc(CN(C(=O)CC(C)C)C2CC(C(=O)N3CCNCC3)N(Cc3ccc(C)s3)C2)c1 (stereo not shown) [X′]
< 1000	COc1cccc(CN(C(=O)C2CC2)C2CC(C(=O)N3CCNCC3)N(Cc3ccc(OC)c(OC)c3OC)C2)c1 (stereo not shown) [N′]
< 1000	COc1cccc(CN(C(=O)c2cccs2)C2CC(C(=O)N3CCNCC3)N(Cc3ccc(C)s3)C2)c1 (stereo not shown) [A]
< 1000	COc1cccc(CN2CC(N(Cc3cccc(OC)c3)C(=O)c3cccs3)CC2C(=O)N2CCNCC2)c1 (stereo not shown) [Q]
< 100	COc1cccc(CN(C(=O)CC(C)(C)C)C2CC(C(=O)N3CCNCC3)N(Cc3ccc4c(c3)OCO4)C2)c1 (stereo not shown) [O′]
< 1000	C=CCOC(=O)N(Cc1cccc(OC)c1)[C@H]1C[C@@H](C(=O)N2CCNCC2)N(Cc2ccc3c(c2)OCO3)C1 [M″]
< 1000	COc1cccc(CN(C(=O)CC(C)(C)C)C2CC(C(=O)N3CCNCC3)N(Cc3ccccc3)C2)c1 (stereo not shown) [R]
< 100	COc1cccc(CN(C(=O)CC(C)(C)C)C2CC(C(=O)N3CCNCC3)N(Cc3ccc(OC)c(OC)c3OC)C2)c1 (stereo not shown) [K]
< 1000	COC(=O)c1ccsc1CN1CC(N(Cc2cccc(OC)c2)C(=O)CC(C)(C)C)CC1C(=O)N1CCNCC1 (stereo not shown) [B″]
< 1000	COc1cccc(CN(C(=O)CC(C)(C)C)[C@H]2C[C@@H](C(=O)NC3CCNCC3)N(Cc3ccc4c(c3)OCO4)C2)c1 [B′″]
< 1000	Cc1ccc(CN2CC(N(Cc3cccs3)C(=O)C3CC3)CC2C(=O)N2CCNCC2)s1 (stereo not shown) [U]
< 1000	COc1cccc(CN2CC(N(Cc3cccc(OC)c3)C(=O)CC(C)(C)C)CC2C(=O)N2CCNCC2)c1 (stereo not shown) [F]
< 1000	Cc1cccc(CN(C(=O)CC(C)C)[C@H]2C[C@@H](C(=O)N3CCNCC3)N(Cc3ccc4c(c3)OCO4)C2)c1 [R″]

IC50 [nM]	SMILES
< 1000	COc1cccc(CN(C(=O)NC(C)C)[C@H]2C[C@@H](C(=O)N3CCNCC3)N(Cc3ccc4c(c3)OCO4)C2)c1 [O″]
< 1000	COc1cccc(CN(C(=O)C2CC2)C2CC(C(=O)N3CCNCC3)N(Cc3ccc(F)cc3)C2)c1 (stereo not shown) [W]
< 1000	CC(C)CC(=O)N(Cc1cccc(O)c1)C1CC(C(=O)N2CCNCC2)N(Cc2ccc3c(c2)OCO3)C1 (stereo not shown) [T″]
< 1000	COc1cccc(CN(C(=O)CC(C)(C)C)C2CC(C(=O)N3CCNCC3)N(Cc3ccc4c(c3)OCO4)C2)c1 (stereo not shown) [N]
< 1000	Cc1ccccc1CN(C(=O)CC(C)C)C1CC(C(=O)N2CCNCC2)N(Cc2ccc3c(c2)OCO3)C1 (stereo not shown) [V″]
< 1000	COc1cccc(CN(C(=O)CC(C)(C)C)[C@H]2C[C@@H](C(=O)N3CCNCC3)N(Cc3cc(C)c(C)o3)C2)c1 [G″]
< 1000	COc1cccc(CN(C(=O)CC(C)(C)C)C2CC(C(=O)N3CCNCC3)N(Cc3ccc(SC)s3)C2)c1 (stereo not shown) [Z′]
< 1000	COc1cccc(CN(C(=O)C2CCC2)C2CC(C(=O)N3CCNCC3)N(Cc3ccc4c(c3)OCCO4)C2)c1 (stereo not shown) [U′]
< 100	COc1cccc(CN(C(=O)NC(C)(C)C)[C@H]2C[C@@H](C(=O)N3CCNCC3)N(Cc3ccc4c(c3)OCO4)C2)c1 [I″]
< 1000	COc1cccc(CN(C(=O)C2CCC2)C2CC(C(=O)N3CCNCC3)N(Cc3ccc(OC)c(OC)c3OC)C2)c1 (stereo not shown) [T′]
< 100	COc1cccc(CN(C(=O)CC(C)C)C2CC(C(=O)N3CCNCC3)N(Cc3ccc4c(c3)OCCO4)C2)c1 (stereo not shown) [H]
< 1000	COc1cccc(CN(C(=O)CC(C)(C)C)C2CC(C(=O)N3CCNCC3)N(CC3CCCCC3)C2)c1 (stereo not shown) [T]
< 1000	COc1cccc(CN(C(=O)CC(C)C)C2CC(C(=O)N3CCNCC3)N(Cc3ccsc3)C2)c1 (stereo not shown) [G]
< 100	COc1cccc(CN(C(=O)CC(C)(C)C)C2CC(C(=O)N3CCNCC3)N(Cc3ccc(C)s3)C2)c1 (stereo not shown) [M′]
< 100	COc1cccc(CN(C(=O)C(C)C)C2CC(C(=O)N3CCNCC3)N(Cc3ccc(C)s3)C2)c1 (stereo not shown) [O]
< 100	COc1cccc(CN(C(=O)C(C)C)C2CC(C(=O)N3CCNCC3)N(Cc3ccc4c(c3)OCO4)C2)c1 (stereo not shown) [P]
